Source: US12643881B2, “Bicyclic amine CDK12 inhibitors” (Incyte Corporation, priority 2021, dated 2026)

target: T1, CDK12 complexed with Cyclin K (Homo sapiens, UniProt Q9NYV4); assay: Alternative CDK Enzymatic Assays (HTRF, pre-incubation with compounds and 1 mM ATP), Example A2; format: biochemical; details: enzyme pre-incubated with compounds and 1 mM ATP for 60 minutes; reaction 120 minutes at 25° C.
T1 construct: GST (N)
From the text: Example A2. Alternative CDK Enzymatic Assays
The following activity of the CDK enzymes in complex with their respective cyclins we assayed: CDK1 complexed with Cyclin B1; CDK2 complexed with Cyclin E1; CDK4 complexed with Cyclin D1; CDK6 complexed with Cyclin D1; CDK6 complexed with Cyclin D3; CDK9 complexed with Cyclin T1; CDK7 complexed with Cyclin H/MAT1; CDK2 complexed with Cyclin A2; CDK5 complexed with p35; CDK12 complexed with Cyclin K; CDK13 complexed with Cyclin K. These in vitro enzyme activity are assayed using homogeneous time-resolved energy transfer (HTRF), which measures phosphorylation of a peptide substrate. The LANCER Ultra kinase assay (PerkinElmer) uses a ULight™-labeled EIF4E-binding protein 1 (THR37/46) peptide (DYSTTPGGTLFSTTPGTRI (SEQ ID NO: 1)) substrate and a Europium-labeled anti-phospho-4E-BP1 antibody (CDK2, CDK1, CDK4, CDK6, CDK9, CDK12, CDK13) or ULight™-labeled Myelin Basic Protein peptide (VTPRTPPP (SEQ ID NO: 2)) substrate and a Europium-labeled anti-phospho-MBP antibody (CDK7). Each CDK enzyme activity assays utilized human CDK co-expressed as N-terminal GST-tagged protein with its full length cyclin partner using a baculovirus expression system.
Enzyme was pre-incubated with compounds and 1 mM ATP for 60 minutes (CDK 1, 2, 4, 6, 9, 7, 12, 13) prior to the addition of ATP and Ulight-peptide (1 mM and 50 nM final, respectively), in assay buffer containing 50 mM HEPES pH 7.5, 1 mM EGTA, 10 mM MgCl2, 2 mM DTT, 0.05 mg/mL BSA, and 0.01% Tween 20. The reaction was then incubated for 120 minutes at 25° C. incubator. The reactions were stopped by the addition of EDTA and Europium labeled antibody, for a final concentration of 15 mM and 0.5-1.5 nM, respectively. HTRF signals were read after 15-120 minutes. A ratio of fluorescence transferred to the labeled substrate (665 nm) relative to fluorescence of the Europium donor (620 nm) represents the extent of phosphorylation. Ratios for treated wells were normalized to DMSO only (100% activity) and no enzyme (0% activity) controls. Normalized data was analyzed using a three or four parameter dose response curve to determine IC50 for each compound and are shown in Table B. Control reference inhibitors were included on each plate.

T1 sequence (Q9NYV4 whole entry): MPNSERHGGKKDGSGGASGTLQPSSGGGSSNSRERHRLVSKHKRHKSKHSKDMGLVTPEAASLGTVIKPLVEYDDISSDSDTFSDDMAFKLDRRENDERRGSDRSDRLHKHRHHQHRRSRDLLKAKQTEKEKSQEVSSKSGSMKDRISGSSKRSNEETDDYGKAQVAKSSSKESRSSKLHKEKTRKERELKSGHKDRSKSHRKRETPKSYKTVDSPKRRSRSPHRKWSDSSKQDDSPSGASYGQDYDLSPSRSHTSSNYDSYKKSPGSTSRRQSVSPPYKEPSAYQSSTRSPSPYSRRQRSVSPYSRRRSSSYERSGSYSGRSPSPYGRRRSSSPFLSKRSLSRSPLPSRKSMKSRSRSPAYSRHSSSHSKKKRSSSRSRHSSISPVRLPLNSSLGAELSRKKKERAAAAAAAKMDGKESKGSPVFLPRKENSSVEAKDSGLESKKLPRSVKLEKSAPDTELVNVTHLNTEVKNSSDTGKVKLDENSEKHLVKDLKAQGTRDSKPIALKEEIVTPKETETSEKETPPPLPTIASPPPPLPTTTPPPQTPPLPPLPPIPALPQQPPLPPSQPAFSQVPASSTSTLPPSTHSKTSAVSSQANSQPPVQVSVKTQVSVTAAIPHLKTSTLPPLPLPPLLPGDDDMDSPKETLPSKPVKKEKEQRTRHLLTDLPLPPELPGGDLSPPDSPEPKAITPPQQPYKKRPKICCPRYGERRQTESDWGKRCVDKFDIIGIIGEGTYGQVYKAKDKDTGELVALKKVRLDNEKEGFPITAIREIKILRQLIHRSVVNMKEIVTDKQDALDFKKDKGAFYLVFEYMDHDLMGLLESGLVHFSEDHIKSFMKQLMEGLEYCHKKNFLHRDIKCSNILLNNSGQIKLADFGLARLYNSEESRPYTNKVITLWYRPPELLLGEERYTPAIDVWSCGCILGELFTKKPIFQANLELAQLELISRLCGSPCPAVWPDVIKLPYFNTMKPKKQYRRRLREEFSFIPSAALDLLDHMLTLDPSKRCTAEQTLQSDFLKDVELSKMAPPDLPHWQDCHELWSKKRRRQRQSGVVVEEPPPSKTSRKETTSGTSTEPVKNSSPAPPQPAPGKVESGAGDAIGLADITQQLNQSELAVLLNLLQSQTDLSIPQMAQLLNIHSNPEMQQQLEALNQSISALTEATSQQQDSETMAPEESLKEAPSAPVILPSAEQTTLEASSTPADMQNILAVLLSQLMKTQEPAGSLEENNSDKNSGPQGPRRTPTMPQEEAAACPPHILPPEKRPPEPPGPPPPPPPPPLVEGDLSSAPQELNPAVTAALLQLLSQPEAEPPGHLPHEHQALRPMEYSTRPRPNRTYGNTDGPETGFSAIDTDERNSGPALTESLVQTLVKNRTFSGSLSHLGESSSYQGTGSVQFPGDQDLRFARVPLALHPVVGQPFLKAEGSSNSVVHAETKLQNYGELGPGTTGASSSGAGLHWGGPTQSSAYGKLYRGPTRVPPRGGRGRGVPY
T1 sequence (O75909 whole entry partner): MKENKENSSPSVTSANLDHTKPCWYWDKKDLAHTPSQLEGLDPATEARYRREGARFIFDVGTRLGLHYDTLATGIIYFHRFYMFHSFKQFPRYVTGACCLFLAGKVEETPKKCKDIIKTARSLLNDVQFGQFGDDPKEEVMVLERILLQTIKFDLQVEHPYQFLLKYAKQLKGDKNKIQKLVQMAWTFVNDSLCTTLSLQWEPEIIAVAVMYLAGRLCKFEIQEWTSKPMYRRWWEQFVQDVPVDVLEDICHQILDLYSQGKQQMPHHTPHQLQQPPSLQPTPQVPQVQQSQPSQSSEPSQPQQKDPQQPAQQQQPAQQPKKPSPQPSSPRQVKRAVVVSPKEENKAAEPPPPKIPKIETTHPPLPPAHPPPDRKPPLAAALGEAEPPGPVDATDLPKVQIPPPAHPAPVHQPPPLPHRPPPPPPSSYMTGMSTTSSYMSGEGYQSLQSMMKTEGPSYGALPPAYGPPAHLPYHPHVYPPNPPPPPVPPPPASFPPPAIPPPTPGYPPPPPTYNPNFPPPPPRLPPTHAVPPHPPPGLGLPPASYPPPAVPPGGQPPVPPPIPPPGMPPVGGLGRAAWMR

SMILES	IC50 [nM]
C=CC(=O)Nc1cc2nc(N3C[C@H](F)C[C@@H](Nc4ncc(C(F)(F)F)cn4)C3)n(C)c2cc1F [Example 132, N-(6-Fluoro-2-((3R,5R)-3-fluoro-5-((5-(trifluoromethyl)pyrimidin-2-yl)amino)piperidin-1-yl)-1-methyl-1H-benzo[d]imidazol-5-yl)acrylamide]	< 50
C=CC(=O)Nc1cc2nc(N3C[C@H](F)C[C@@H](Nc4ncc(C(F)(F)F)cn4)C3)n(C)c2cc1COC [Example 133, N-(2-((3R,5R)-3-Fluoro-5-((5-(trifluoromethyl)pyrimidin-2-yl)amino)piperidin-1-yl)-6-(methoxymethyl)-1-methyl-1H-benzo[d]imidazol-5-yl)acrylamide]	< 50
C=CC(=O)Nc1cc2nc(N3C[C@H](F)C[C@@H](Nc4ncc(C(F)(F)F)cn4)C3)n(C)c2cc1Cl [Example 134, N-(6-Chloro-2-((3R,5R)-3-fluoro-5-((5-(trifluoromethyl)pyrimidin-2-yl)amino)piperidin-1-yl)-1-methyl-1H-benzo[d]imidazol-5-yl)acrylamide]	< 50
[2H]C([2H])([2H])c1cc2c(cc1NC(=O)C=C)nc(N1C[C@H](F)C[C@@H](Nc3ncc(C(F)(F)F)cn3)C1)n2C [Example 135, N-(2-((3R,5R)-3-Fluoro-5-((5-(trifluoromethyl)pyrimidin-2-yl)amino)piperidin-1-yl)-1-methyl-6-(methyl-d3)-1H-benzo[d]imidazol-5-yl)acrylamide]	< 50
C=CC(=O)Nc1cc2nc(N3C[C@H](F)C[C@@H](Nc4ncc(C(F)(F)F)cn4)C3)n(C)c2cc1N1CCCC1 [Example 136, N-(2-((3R,5R)-3-Fluoro-5-((5-(trifluoromethyl)pyrimidin-2-yl)amino)piperidin-1-yl)-1-methyl-6-(pyrrolidin-1-yl)-1H-benzo[d]imidazol-5-yl)acrylamide]	< 50
C=CC(=O)Nc1cc2nc(N3C[C@H](F)C[C@@H](Nc4ncc(C(F)(F)F)cn4)C3)n(C)c2cc1C(=O)N1CCOCC1 [Example 137, N-(2-((3R,5R)-3-Fluoro-5-((5-(trifluoromethyl)pyrimidin-2-yl)amino)piperidin-1-yl)-1-methyl-6-(morpholine-4-carbonyl)-1H-benzo[d]imidazol-5-yl)acrylamide]	50 to 500
C=CC(=O)Nc1cc2nc(N3C[C@H](F)C[C@@H](Nc4ncc(C(F)(F)F)cn4)C3)n(C)c2cc1C(=O)N1CCCC1 [Example 138, N-(2-((3R,5R)-3-Fluoro-5-((5-(trifluoromethyl)pyrimidin-2-yl)amino)piperidin-1-yl)-1-methyl-6-(pyrrolidine-1-carbonyl)-1H-benzo[d]imidazol-5-yl)acrylamide]	50 to 500
C=CC(=O)Nc1cc2nc(N3C[C@H](F)C[C@@H](Nc4ncc(C(F)(F)F)cn4)C3)n(C)c2cc1N1CCOCC1 [Example 139, N-(2-((3R,5R)-3-Fluoro-5-((5-(trifluoromethyl)pyrimidin-2-yl)amino)piperidin-1-yl)-1-methyl-6-morpholino-1H-benzo[d]imidazol-5-yl)acrylamide]	50 to 500
C=CC(=O)Nc1cc2nc(N3C[C@H](F)C[C@@H](Nc4ncc(C(F)(F)F)cn4)C3)n(C)c2cc1C#N [Example 140, N-(6-Cyano-2-((3R,5R)-3-fluoro-5-((5-(trifluoromethyl)pyrimidin-2-yl)amino)piperidin-1-yl)-1-methyl-1H-benzo[d]imidazol-5-yl)acrylamide]	< 50
C=CC(=O)Nc1cc2nc(N3C[C@H](F)C[C@@H](Nc4ncc(C(F)(F)F)cn4)C3)n(C)c2cc1Br [Example 141, N-(6-Bromo-2-((3R,5R)-3-fluoro-5-((5-(trifluoromethyl)pyrimidin-2-yl)amino)piperidin-1-yl)-1-methyl-1H-benzo[d]imidazol-5-yl)acrylamide]	< 50
C=CC(=O)Nc1ccc2c(c1)nc(N1CCC[C@@H](Nc3ncc(C#N)c(N4CC[C@@H](N(C)C)C4)n3)C1)n2C [Example 142, N-(2-((R)-3-((5-cyano-4-((R)-3-(dimethylamino)pyrrolidin-1-yl)pyrimidin-2-yl)amino)piperidin-1-yl)-1-methyl-1H-benzo[d]imidazol-5-yl)acrylamide]	< 50
C=CC(=O)Nc1ccc2c(c1)nc(N1CCC[C@@H](Nc3ncc(C#N)cn3)C1)n2C [Example 143, (R)—N-(2-(3-((5-Cyanopyrimidin-2-yl)amino)piperidin-1-yl)-1-methyl-1H-benzo[d]imidazol-5-yl)acrylamide]	< 50
C=CC(=O)Nc1c(C)cc2c(nc(N3C[C@H](F)C[C@@H](Nc4ncc(C(F)(F)F)cn4)C3)n2C)c1C [Example 144, N-(2-((3R,5R)-3-Fluoro-5-((5-(trifluoromethyl)pyrimidin-2-yl)amino)piperidin-1-yl)-1,4,6-trimethyl-1H-benzo[d]imidazol-5-yl)acrylamide]	> 500
C=CC(=O)Nc1c(C)cc2c(nc(N3C[C@H](F)C[C@@H](Nc4ncc(C#N)cn4)C3)n2C)c1Br [Example 145, N-(4-Bromo-2-((3R,5R)-3-((5-cyanopyrimidin-2-yl)amino)-5-fluoropiperidin-1-yl)-1,6-dimethyl-1H-benzo[d]imidazol-5-yl)acrylamide]	50 to 500
C=CC(=O)Nc1c(C)cc2c(nc(N3C[C@H](F)C[C@@H](Nc4ncc(C(F)(F)F)cn4)C3)n2C)c1Br [Example 146, N-(4-Bromo-2-((3R,5R)-3-fluoro-5-((5-(trifluoromethyl)pyrimidin-2-yl)amino)piperidin-1-yl)-1,6-dimethyl-1H-benzo[d]imidazol-5-yl)acrylamide]	50 to 500
C=CC(=O)Nc1cc2nc(N3C[C@H](O)C[C@@H](Nc4ncc(C#N)cn4)C3)n(C)c2cc1C [Example 147, N-(2-((3R,5R)-3-((5-Cyanopyrimidin-2-yl)amino)-5-hydroxypiperidin-1-yl)-1,6-dimethyl-1H-benzo[d]imidazol-5-yl)acrylamide]	50 to 500
C=CC(=O)Nc1cc2nc(N3CC[C@@H](O)[C@@H](Nc4ncc(C(F)(F)F)cn4)C3)n(C)c2cc1C [Example 148, N-(2-((3S,4R)-4-Hydroxy-3-((5-(trifluoromethyl)pyrimidin-2-yl)amino)piperidin-1-yl)-1,6-dimethyl-1H-benzo[d]imidazol-5-yl)acrylamide]	> 500
C=CC(=O)Nc1cc2nc(N3CC[C@H](O)[C@@H](Nc4ncc(C(F)(F)F)cn4)C3)n(C)c2cc1C [Example 149, N-(2-((3S,4S)-4-Hydroxy-3-((5-(trifluoromethyl)pyrimidin-2-yl)amino)piperidin-1-yl)-1,6-dimethyl-1H-benzo[d]imidazol-5-yl)acrylamide]	> 500
C=CC(=O)Nc1cc2nc(N3CCC[C@@H](Nc4ncc(C(F)(F)F)cn4)C3)n(C)c2cc1C1CC1 [Example 150, (R)—N-(6-Cyclopropyl-1-methyl-2-(3-((5-(trifluoromethyl)pyrimidin-2-yl)amino)piperidin-1-yl)-1H-benzo[d]imidazol-5-yl)acrylamide]	< 50
C=CC(=O)Nc1ccc2c(c1)nc(N1CCC[C@@H](Nc3cc(OC)c(C#N)cn3)C1)n2C [Example 151, (R)—N-(2-(3-((5-Cyano-4-methoxypyridin-2-yl)amino)piperidin-1-yl)-1-methyl-1H-benzo[d]imidazol-5-yl)acrylamide]	< 50
C=CC(=O)Nc1ccc2c(c1)nc(N1CCC[C@@H](Nc3ncc(C(F)(F)F)c(N4CCN(C)CC4)n3)C1)n2C [Example 152, (R)—N-(1-Methyl-2-(3-((4-(4-methylpiperazin-1-yl)-5-(trifluoromethyl)pyrimidin-2-yl)amino)piperidin-1-yl)-1H-benzo[d]imidazol-5-yl)acrylamide]	< 50
C=CC(=O)Nc1cc2nc(N3CCC[C@@H](Nc4ncc(C(F)(F)F)cn4)C3)n(C)c2cc1CC [Example 153, (R)—N-(6-Ethyl-1-methyl-2-(3-((5-(trifluoromethyl)pyrimidin-2-yl)amino)piperidin-1-yl)-1H-benzo[d]imidazol-5-yl)acrylamide]	< 50
C=CC(=O)Nc1cc2nc(N3CCC[C@@H](Nc4ncc(C(F)(F)F)cn4)C3)n(C)c2cc1C(C)C [Example 154, (R)—N-(6-Isopropyl-1-methyl-2-(3-((5-(trifluoromethyl)pyrimidin-2-yl)amino)piperidin-1-yl)-1H-benzo[d]imidazol-5-yl)acrylamide]	< 50
C=CC(=O)Nc1c(C(C)C)cc2c(nc(N3CCC[C@@H](Nc4ncc(C(F)(F)F)cn4)C3)n2C)c1C [Example 155, (R)—N-(6-Isopropyl-1,4-dimethyl-2-(3-((5-(trifluoromethyl)pyrimidin-2-yl)amino)piperidin-1-yl)-1H-benzo[d]imidazol-5-yl)acrylamide]	< 50
